The values below come from patent US10745356B2, “Compositions and methods for treating tuberculosis” (priority 2015, dated 2020).

Molecules are shown by their SMILES. In brackets after ≈: the same amount, converted by molar mass.

One test concerns M. tuberculosis strains. Briefly: Minimum Inhibitory Concentration (MIC) against M. tuberculosis strains, resazurin microtiter plate assay. The class given is cell-based, Mycobacterium tuberculosis. The following applies: Mycobacterium tuberculosis.
`CNC(=O)c1cc(-c2cccc(Cl)c2)c2c(C)c(-c3ccncc3)c(C)cc2n1` [Compound 66] registered an MIC90 of 2.5 µM (≈ 1 µg/mL). `Cc1cc2nc(C(=O)NCCF)cc(-c3ccccc3Cl)c2c(C)c1-c1ccncc1` [Compound 31] returned an MIC90 of 1.25 µM (≈ 0.542 µg/mL). On to `CNC(=O)c1cc(-c2ccccc2F)c2c(C)c(C3=CCC(CO)CC3)c(C)cc2n1` (stereo not shown) [Compound 91], for which the MIC90 turned out to be 0.6 µM (≈ 0.251 µg/mL).

Compound `Cc1cc2nccc(-c3ccccc3)c2c(C)c1-c1ccnn1C` [Compound 76] had an MIC90 of 47 µM (≈ 14.7 µg/mL).

As to `Cc1cccc(C)c1-c1ccnc2cc(C)c(-c3ccc(CN4CCOCC4)cc3)c(C)c12` [Compound 58], the MIC90 was found to be 5 µM (≈ 2.18 µg/mL). On the same count and under the same terms, the same measure for `Cc1cc2nccc(-c3ccc(Cl)cc3)c2c(C)c1-c1ccc(CN2CCOCC2)cc1` [Compound 50]: 80 µM (≈ 35.4 µg/mL); for `CNC(=O)c1cc(-c2ccccc2F)c2c(C)c(-c3ccoc3)c(C)cc2n1` [Compound 80]: 0.6 µM (≈ 0.225 µg/mL); for `Cc1cc2nccc(-c3cccc(Cl)c3)c2c(C)c1-c1ccc(CN2CCOCC2)cc1` [Compound 49]: 0.6 µM (≈ 0.266 µg/mL).

The same test, now with this note: Mycobacterium tuberculosis, Table 1, C2 SAR with chlorophenyl; Middlebrook 7H9, 37° C. six days, resazurin fluorescence after 48 hours; read-out: MIC90.
Regarding `Cc1cc2nc(N)cc(-c3ccccc3Cl)c2c(C)c1-c1ccncc1` [Compound 7], the MIC90 was determined as 10 µM (≈ 3.6 µg/mL).

Consider `Cc1cc2nc(C(=O)NC3CC3)cc(-c3ccccc3Cl)c2c(C)c1-c1ccncc1` [Compound 14], for which the MIC90 amounted to 1.9 µM (≈ 0.813 µg/mL). The same measure, in the same setting: with `Cc1cc2nc(C(=O)NCC(O)CO)cc(-c3ccccc3Cl)c2c(C)c1-c1ccncc1` (stereo not shown) [Compound 22] the figure was 0.4 µM (≈ 0.185 µg/mL); with `CNc1cc(-c2ccccc2Cl)c2c(C)c(-c3ccncc3)c(C)cc2n1` [Compound 8], 6 µM (≈ 2.24 µg/mL).

As to `Cc1cc2nc(C(N)=O)cc(-c3ccccc3Cl)c2c(C)c1-c1ccncc1` [Compound 12], the MIC90 is 1.25 µM (≈ 0.485 µg/mL). For the compound `Cc1cc2nc(C(C)(C)O)cc(-c3ccccc3Cl)c2c(C)c1-c1ccncc1` [Compound 4], the MIC90 is above 40 µM. Take `Cc1cc2nc(C(=O)NCC(N)=O)cc(-c3ccccc3Cl)c2c(C)c1-c1ccncc1` [Compound 27]: the MIC90 was found to be 0.8 µM (≈ 0.356 µg/mL). Consider `Cc1cc2nc(C(=O)NS(=O)(=O)C3CC3)cc(-c3ccccc3Cl)c2c(C)c1-c1ccncc1` [Compound 20], for which the MIC90 worked out at 2.5 µM (≈ 1.23 µg/mL). As to `Cc1cc2nc(C(=O)N[C@H]3CCC[C@@H]3O)cc(-c3ccccc3Cl)c2c(C)c1-c1ccncc1` [Compound 24], the MIC90 came to 0.6 µM (≈ 0.283 µg/mL).

The same test, now with this note: Mycobacterium tuberculosis, Table 1A, C2 SAR with fluorophenyl; Middlebrook 7H9, 37° C. six days, resazurin fluorescence after 48 hours; read-out: MIC90.
Turning to `Cc1cc2nc(C(=O)NC[C@H](O)CO)cc(-c3ccccc3F)c2c(C)c1-c1ccncc1` [Compound 43], the MIC90 came out at 0.8 µM (≈ 0.356 µg/mL). As to `Cc1cc2nc(C(=O)NC3CCN(C)CC3)cc(-c3ccccc3F)c2c(C)c1-c1ccncc1` [Compound 46], the MIC90 was 1.25 µM (≈ 0.586 µg/mL). As for `Cc1cc2nccc(-c3ccccc3F)c2c(C)c1-c1ccncc1` [Compound 36], the MIC90 worked out at 5 µM (≈ 1.64 µg/mL).

For the compound `Cc1cc2nc(C(=O)NCCO)cc(-c3ccccc3F)c2c(C)c1-c1ccncc1` [Compound 38], the MIC90 was 1.6 µM (≈ 0.665 µg/mL). As to `CNC(=O)c1cc(-c2ccccc2F)c2c(C)c(-c3ccncc3)c(C)cc2n1` [Compound 37], the MIC90 was determined as 1.25 µM (≈ 0.482 µg/mL). The same measure, in the same setting: with `Cc1cc2nc(C(=O)N[C@@H](C)CO)cc(-c3ccccc3F)c2c(C)c1-c1ccncc1` [Compound 40] the figure was 0.3 µM (≈ 0.129 µg/mL).

Still in this test, the particulars now being: Mycobacterium tuberculosis, Table 2, C4 SAR; Middlebrook 7H9, 37° C. six days, resazurin fluorescence after 48 hours; read-out: MIC90.
Take `Cc1cc2nccc(-c3ccccc3C#N)c2c(C)c1-c1ccc(CN2CCOCC2)cc1` [Compound 52]: the MIC90 came to 2.5 µM (≈ 1.08 µg/mL). Consider `Cc1cc2nccc(-c3cncnc3C)c2c(C)c1-c1ccc(CN2CCOCC2)cc1` [Compound 65], for which the MIC90 came to 5 µM (≈ 2.12 µg/mL). As for `Cc1cc2nccc(-c3cncnc3)c2c(C)c1-c1ccc(CN2CCOCC2)cc1` [Compound 64], the MIC90 is 2.5 µM (≈ 1.03 µg/mL).

The test is the same for the next values; noted with them: Mycobacterium tuberculosis, Table 3, C4 SAR; Middlebrook 7H9, 37° C. six days, resazurin fluorescence after 48 hours; read-out: MIC90.
On to `CNC(=O)c1cc(N2CCCC2)c2c(C)c(-c3ccncc3)c(C)cc2n1` [Compound 71], for which the MIC90 is above 50 µM. `CNC(=O)c1cc(-c2cncnc2)c2c(C)c(-c3ccncc3)c(C)cc2n1` [Compound 68]: the MIC90 stood at 10 µM (≈ 3.69 µg/mL). Take `CNC(=O)c1cc(-c2ccccc2F)c2c(C)c(-c3ccncc3)c(C)cc2n1` [Compound 37]: the MIC90 is 0.6 µM (≈ 0.231 µg/mL).

Staying with this test, now noted: Mycobacterium tuberculosis, Table 4A, C6 SAR with amide; Middlebrook 7H9, 37° C. six days, resazurin fluorescence after 48 hours; read-out: MIC90.
Consider `CNC(=O)c1cc(-c2ccccc2F)c2c(C)c(-c3cnc(C(=O)O)nc3)c(C)cc2n1` [Compound 82], for which the MIC90 came out at 80 µM (≈ 34.4 µg/mL).

On to `CNC(=O)c1cc(-c2ccccc2F)c2c(C)c(C3=CCC(C(=O)N4CCOCC4)CC3)c(C)cc2n1` (stereo not shown) [Compound 89], for which the MIC90 amounted to 1.25 µM (≈ 0.627 µg/mL).

Regarding `CNC(=O)c1cc(-c2ccccc2F)c2c(C)c(-c3ccncc3)c(C)cc2n1` [Compound 37], the MIC90 came to 1.25 µM (≈ 0.482 µg/mL). Take `CNC(=O)c1cc(-c2ccccc2F)c2c(C)c(-c3ccnc(N)c3)c(C)cc2n1` [Compound 83]: the MIC90 is 7.5 µM (≈ 3 µg/mL).

The same test, now with this note: Mycobacterium tuberculosis, Table 5; Middlebrook 7H9, 37° C. six days, resazurin fluorescence after 48 hours; read-out: MIC90.
As for `CNC(=O)c1cc(N2CCN(C)CC2)c2c(C)c(-c3ccncc3)c(C)cc2n1` [Compound 100], the MIC90 was above 50 µM.

As to `Cc1cc2nc(C(=O)NS(C)(=O)=O)cc(-c3ccccc3Cl)c2c(C)c1-c1ccncc1` [Compound 94], the MIC90 was determined as 5 µM (≈ 2.33 µg/mL). `Cc1cc2nc(C(=O)N[C@H]3CCC[C@@H]3O)cc(-c3ccccc3F)c2c(C)c1-c1ccncc1` [Compound 97]: the MIC90 is below 0.16 µM.

As for `Cc1cc2nc(C(=O)NCCO)cc(-c3ccccc3)c2c(C)c1-c1ccncc1` [Compound 96], the MIC90 was 0.3 µM (≈ 0.119 µg/mL).

Staying with this test, now noted: Mycobacterium tuberculosis, Table 6; Middlebrook 7H9, 37° C. six days, resazurin fluorescence after 48 hours; read-out: MIC90.
Regarding `Cc1cc2nc(C(=O)NCCO)cc(-c3ccnn3C)c2c(C)c1-c1ccncc1` [Compound 107], the MIC90 is 1.6 µM (≈ 0.642 µg/mL). Turning to `Cc1cc2nc(C(=O)N[C@@H]3CNC[C@@H]3F)cc(-c3ccnn3C)c2c(C)c1-c1ccncc1` (racemic) [Compound 105, N-[(3R,4S and 3S,4R)-4-fluoropyrrolidin-3-yl]-5,7-dimethyl-4-(2-methylpyrazol-3-yl)-6-(4-pyridyl)quinoline-2-carboxamide], the MIC90 worked out at 3 µM (≈ 1.33 µg/mL). For `CNC(=O)c1cc(-c2ccnn2C)c2c(C)c(-c3ccncc3)c(C)cc2n1` [Compound 104], the MIC90 was 6 µM (≈ 2.23 µg/mL).

By MIC90 is commonly meant the lowest concentration that inhibits either 90% of growth or 90% of the strains tested, depending on the study.
